# Measured values as given in US20240263147A1, “CARDIAC ORGANOID AND ANTI-ELECTRO-MITOCHONDRIAL DESYNCHRONIZATION THERAPY” (YISSUM RESEARCH DEVELOPMENT COMPANY OF THE HEBREW …, priority 2021, published 2024).
# Entries after “also recorded” stand apart in the source; their conditions may differ.
# Assays:
# Format in all cases: cell-based, human
# [1] = test system: vascularized cardiac organoids; assay: Integrated metabolic-electro-mechanical sensor chip: simultaneous contraction, field potential and interstitial oxygen; settings: 10 μM KB-R7943
# Experimental: The MEA design and printed connections enabled access to 45 different electrodes inside the platform intermittently via a compatible sensor circuit (FIGS. 9A-9B). Spontaneous cardiac field potentials (FPs) were recorded from cardiac organoids using an integrated signal conditioning circuit (AD8232®), with a 2-pole adjustable high-pass filter, 3-pole adjustable low-pass filter, adjustable gain, and medical instrumentation amplifiers to extract, amplify, and filter the extracellular field potential of the organoids remotely within the confined well. […] Spontaneous cardiac field potentials were measured at 100 Hz sampling rate in each microwell. Field potential rhythm frequency was calculated in real-time using a custom-made MATLAB® software imposing Fourier Transformation (FFT) on the evolving kinetic data (FIGS. 9C-9D).
# Real-time oxygen measurement was performed based on previously described elements. Briefly, phosphorescent ruthenium microprobes (CPOx-50-RuP) show a decrease in phosphorescence decay time as a function of oxygen concentration, allowing to measure the oxygen content. Controlled sinusoidal modulated 532-nm LED signal excites the embedded oxygen sensors and emits a sinusoidal amplitude-modulated light at 605 nm that is shifted in phase due to oxygen quenching. A phase shift is measured between the emission hardware-filtered first detector (PMT), and a second excitation detector (cPMT). […] Measurements were carried out at a 10 Hz sampling rate. Contraction rate and oxygen rhythm frequency were calculated in real-time using a custom-made MATLAB® software imposing Fourier Transformation (FFT) on the evolving kinetic data. Using custom MATLAB code, we calculated the cardiac organoid contraction rates directly from our oxygen reader based on the emission intensity measured in peak-to-peak voltage from the oxygen bead and its displacement using the second PMT system. Cardiac displacement was measured by the embedded oxygen beads inside the cardiac organoids during a contraction. When the beads move at different distances from the focal point, changes in peak-to-peak voltage occurred leading to the detection of the contraction behavior.
# For simultaneous real-time oxygen, contraction rate, and field potential measurements, cardiac organoids were cultured in RPMI supplemented with B27 minus insulin, 5 ng/ml VEGF and 0.1% DMSO (control) or 10 μM KB-R7943 mesylate. Real-time oxygen, contraction rate, and field potential were measured after 0, 15, and 25 minutes of exposure to DMSO (control) or 10 μM KB-R7943 mesylate.
# [2] = test system: vascularized cardiac organoids; assay: Metabolic flux balance analysis and ATP production in cardiac organoids; settings: 10 μM KB-R7943, within 20 minutes of exposure
# Experimental: Amperometric 4-analytes sensors (B.LV5) were purchased from Innovative Sensor Technology (IST, Switzerland). Measurements were carried out and calibrated to sensitivity decrease by an on-chip potentiostat (IST, Switzerland). Oxygen, glucose, lactate, and glutamine fluxes were measured by calculating the change in metabolite concentration over time. Glutamine measurement allowed us to calculate lipid metabolism fluxes. Oxidative phosphorylation flux was calculated by dividing the oxygen uptake rate by six. The inventors estimated 32 ATP molecules generated by the complete oxidation of glucose. Glycolysis flux was calculated by dividing the lactate production rate by two, with the maximal rate defined by glucose uptake rate minus the oxidative phosphorylation flux. ATP production in glycolysis was estimated to be two molecules per molecule of glucose. Glutaminolysis was calculated directly by glutamine uptake. ATP production in glutaminolysis was estimated to be three molecules per molecule of lactate generated.
# [3] = test system: vascularized cardiac organoids; assay: Integrated metabolic-electro-mechanical sensor chip: simultaneous contraction, field potential and interstitial oxygen; settings: 10 μM KB-R7943, within 35 minutes of exposure; n=9
# [4] = test system: hiPSC-derived cardiomyocytes; assay: Live imaging of mitochondrial calcium (Rhod-2AM) and visual contraction analysis in 2D culture; settings: for decrease of magnitude of [Ca2+]m oscillations / reduction of contraction magnitude: n=4
# Experimental: Fast phase-contrast imaging (17 frames per second) was performed at suitable magnification using an LSM-700 Zeiss microscope. The time-lapse micrograph was analyzed using a custom MATLAB® code. Briefly, multiple regions of interest (ROIs) were selected on the cardiac tissue borders, producing a distinct area with changes representative of the cardiac contraction. Dynamic changes in the ROI intensity were measured over time and converted into beating rates using Fast Fourier Transformation (FFT). Contractility was calculated based on the frequency amplitude magnitude.
# For mitochondrial calcium live imaging, different hiPSC-derived cardiomyocytes were cultured in RPMI supplemented with B27 minus insulin, and 0.1% DMSO (control) or […] KB-R7943 mesylate (Tocris Bioscieice, USA), Mean mitochondrial calcium was measured using live imaging of Rhod-2AM dye after 0, 30, and 90 seconds of exposure to DMSO (control) or 10 μM MCU inhibitor KB-R7943 mesylate
# Mitochondrial calcium uptake within human iPSC-derived cardiomyocytes was measured using Rhod-2AM dye according to the manufacturer's instructions (Abcam, USA). Cells were loaded with […] Rhod-2AM in RPMI supplemented with B27-I for 30 min at 37° C., washed with PBS, and incubated with RPMI supplemented with […] KB-R7943 or 0.1% DMSO, and B27-I. Measurements were taken continuously using an incubated LSM-700 Zeiss microscope at 5% CO2 and 37° C. Rhod-2AM measurement was conducted by excitation at 552 nm at a 10 Hz sampling rate. Mitochondrial calcium uptake was calculated by the change of the mean emission intensity at 581 nm. The time-lapse micrograph was analyzed using multiple regions of interest (ROIs) and was selected based on Mitotracker staining, producing a distinct area with changes representative to mitochondrial networks. Changes in fluorescent intensity were used to determine oscillation rate and amplitude.
smiles,measurement,setting,value
N=C(N)SCCc1ccc(OCc2ccc([N+](=O)[O-])cc2)cc1 [KB-R7943],effect on coupling of mitochondrial and electro-mechanical activity,[1],"caused uncoupling between mitochondrial and electro-mechanical activity, resulting in arrhythmic cardiac behavior"
same,effect on magnitude of organoid contraction and depolarization,[1],comparable and parallel decrease
same,effect on oxygen uptake of the cardiac organoid,[1],progressive decrease in the oxygen uptake
same,effect on magnitude of oxygen oscillations,[1]; n=9,significantly and progressively decreased
same,effect on ATP generation (production),[2],decrease in ATP production; also recorded: decrease in ATP generation
same,"increase of contraction frequency, oxygen oscillation rate and field potential oscillation frequency (all three rates)",[3],2.5 fold
same,effect on [Ca2+]m concentration,[4]; 10 μM KB-R7943,no significant difference
same,decrease of magnitude of [Ca2+]m oscillations,"[4]; 10 μM KB-R7943, 30 seconds",60%
same,reduction of contraction magnitude,"[4]; 10 μM KB-R7943, 30 seconds",45%
same,decrease of magnitude of [Ca2+]m oscillations,"[4]; 10 μM KB-R7943, 90 seconds",78%
same,reduction of contraction magnitude,"[4]; 10 μM KB-R7943, 90 seconds",70%
same,effect on cardiomyocyte contractility and [Ca2+]m oscillation amplitude,"[4]; 10 μM KB-R7943, acute","dramatically decreases cardiomyocyte contractility, and [Ca^2+]m oscillation amplitude; also recorded: decreases the magnitude of cardiomyocyte contraction"
same,effect on cardiomyocyte contraction frequency (rate),"[4]; 10 μM KB-R7943, short term exposure",without affecting contraction rate; also recorded: did not significantly affect
